Assay results reported in US20060041123A1, “Antibacterial agents” (priority 2002, published 2006).

Assay: Antimicrobial activity assay: whole-cell MIC by broth microdilution (NCCLS M7-A6)
Format: cell-based
Settings: versus all the organisms named above (S. aureus WCUH29, S. pneumoniae 1629, S. pyogenes CN 10, E. faecalis 2, H. influenzae NEMC1, E. coli 7623, M. catarrhalis Ravasio); read-out: MIC
Summary of the method: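 Broth microdilution per NCCLS M7-A6, with serial two-fold compound dilutions from 0.016 to 16 mcg/mL. MIC read as the lowest concentration inhibiting visible growth, using a mirror reader.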

Compound | MIC
COc1cc(F)c2ncc(Cl)c(CCN3CC[C@H](NCc4cc5c(cn4)OCCO5)[C@H](O)C3)c2c1.Cl.Cl [Example 98, (3R,4S)-1-{2-[3-chloro-8-fluoro-6-(methoxy)-4-quinolinyl]ethyl}-4-[(2,3-dihydro[1,4]dioxino[2,3-c]pyridin-7-ylmethyl)amino]-3-piperidinol dihydrochloride] | ≤ 2 µg/mL
COc1ccc2ncc(Cl)c(C(CO)CN3CCC(NCc4ccc5c(n4)NC(=O)CS5)CC3)c2n1.Cl.Cl (stereo not drawn) [Example 105, 6-{[(1-{2-[3-chloro-6-(methoxy)-1,5-naphthyridin-4-yl]-3-hydroxypropyl}-4-piperidinyl)amino]methyl}-2H-pyrido[3,2-b][1,4]thiazin-3(4H)-one dihydrochloride] | ≤ 2 µg/mL
Cl.Cl.O=C1CSc2ccc(CNC3CCN(CCc4c(F)cnc5ccc(F)cc45)CC3)nc2N1 [Example 106, 6-[({1-[2-(3,6-difluoro-4-quinolinyl)ethyl]-4-piperidinyl}amino)methyl]-2H-pyrido[3,2-b][1,4]thiazin-3(4H)-one dihydrochloride] | ≤ 2 µg/mL
COc1c(F)ccc2ncc(Cl)c(CCN3CCC(NCc4cc5c(cn4)OCCO5)CC3)c12.Cl.Cl [Example 110, 1-{2-[3-chloro-6-fluoro-5-(methoxy)-4-quinolinyl]ethyl}-N-(2,3-dihydro[1,4]dioxino[2,3-c]pyridin-7-ylmethyl)-4-piperidinamine dihydrochloride] | ≤ 2 µg/mL
COc1ccc2ncc(F)c(CCN3CCC(NCc4cc5c(cn4)OCCC5)CC3)c2n1.Cl.Cl [Example 126, N-(3,4-dihydro-2H-pyrano[2,3-c]pyridin-6-ylmethyl)-1-{2-[3-fluoro-6-(methoxy)-1,5-naphthyridin-4-yl]ethyl}-4-piperidinamine dihydrochloride] | ≤ 2 µg/mL
COc1ccc2ncc(F)c(CCN3CCC(NCc4ccc5c(c4)NC(=O)CCS5)CC3)c2n1 [Example 128, 7-{[(1-{2-[3-fluoro-6-(methoxy)-1,5-naphthyridin-4-yl]ethyl}-4-piperidinyl)amino]methyl}-2,3-dihydro-1,5-benzothiazepin-4(5H)-one] | ≤ 2 µg/mL
COc1ccc2ncc(F)c(CCN3CCC(C)(NCc4ccc5c(n4)NC(=O)CO5)CC3)c2n1.Cl.Cl [Example 138, 6-{[(1-{2-[3-fluoro-6-(methoxy)-1,5-naphthyridin-4-yl]ethyl}-4-methyl-4-piperidinyl)amino]methyl}-2H-pyrido[3,2-b][1,4]oxazin-3(4H)-one dihydrochloride] | ≤ 2 µg/mL
COc1ccc2ncc(F)c(CCN3CCC(C)(NCc4ccc5c(n4)NC(=O)CS5)CC3)c2n1.Cl.Cl [Example 139, 6-{[(1-{2-[3-fluoro-6-(methoxy)-1,5-naphthyridin-4-yl]ethyl}-4-methyl-4-piperidinyl)amino]methyl}-2H-pyrido[3,2-b][1,4]thiazin-3(4H)-one dihydrochloride] | ≤ 2 µg/mL
COc1ccc2ncc(F)c(CCN3CCC(C)(NCc4cc5c(cn4)OCCO5)CC3)c2n1.Cl.Cl [Example 140, N-(2,3-dihydro[1,4]dioxino[2,3-c]pyridin-7-ylmethyl)-1-{2-[3-fluoro-6-(methoxy)-1,5-naphthyridin-4-yl]ethyl}-4-methyl-4-piperidinamine dihydrochloride] | ≤ 2 µg/mL
COc1ccc2ncc(F)c(CCN3CCC(NCc4ccc5c(c4)OCCO5)CC3)c2n1 [Example 157, N-(2,3-dihydro-1,4-benzodioxin-6-ylmethyl)-1-{2-[3-fluoro-6-(methoxy)-1,5-naphthyridin-4-yl]ethyl}-4-piperidinamine] | ≤ 2 µg/mL
COc1cc(F)c2ncc(Cl)c(CCN3CCC(NCc4ccc5c(n4)NC(=O)CS5)CC3)c2c1 [Example 160, 6-{[(1-{2-[3-chloro-8-fluoro-6-(methoxy)-4-quinolinyl]ethyl}-4-piperidinyl)amino]methyl}-2H-pyrido[3,2-b][1,4]thiazin-3(4H)-one] | ≤ 2 µg/mL
COc1cc(F)c2ncc(Cl)c(CCN3CCC(NCc4cc5c(cn4)OCCO5)CC3)c2c1 [Example 161, 1-{2-[3-chloro-8-fluoro-6-(methoxy)-4-quinolinyl]ethyl}-N-(2,3-dihydro[1,4]dioxino[2,3-c]pyridin-7-ylmethyl)-4-piperidinamine] | ≤ 2 µg/mL
COc1ccc2ncc(F)c(CCN3CCC(C)(NC(=O)c4ccc5c(n4)NC(=O)CO5)CC3)c2n1 [Example 167, N-(1-{2-[3-fluoro-6-(methoxy)-1,5-naphthyridin-4-yl]ethyl}-4-methyl-4-piperidinyl)-3-oxo-3,4-dihydro-2H-pyrido[3,2-b][1,4]oxazine-6-carboxamide] | ≤ 2 µg/mL
COc1ccc2ncc(F)c(CCN3CCC(C)(NC(=O)c4ccc5c(n4)NC(=O)CS5)CC3)c2n1 [Example 168, N-(1-{2-[3-fluoro-6-(methoxy)-1,5-naphthyridin-4-yl]ethyl}-4-methyl-4-piperidinyl)-3-oxo-3,4-dihydro-2H-pyrido[3,2-b][1,4]thiazine-6-carboxamide] | ≤ 2 µg/mL
COc1ccc2ncc(F)c(CCN3CCC(NCc4ccc5c(c4)CCO5)CC3)c2n1.Cl.Cl [Example 178, N-(2,3-dihydro-1-benzofuran-5-ylmethyl)-1-{2-[3-fluoro-6-(methoxy)-1,5-naphthyridin-4-yl]ethyl}-4-piperidinamine dihydrochloride] | ≤ 2 µg/mL
